Reference: patent US8586007B2, “Co-polymer stabilizers for hydrofluoroalkane dispersions” (Wayne State University, priority 2007, dated 2013)

Columns and labels:
[1] = Colloidal probe microscopy (CPM): adhesion force (Fad) in liquid HPFP in the presence of surfactants and/or cosolvents; format: physicochemical; details: 298 K
Excerpt: Preparation and Characterization of the Drug-Modified AFM Cantilever (Colloidal Probe). Single salbutamol crystals were glued onto silicon nitride contact-mode cantilevers (NP-20) with the help of an AFM (Pico LE, Molecular Imaging). In brief, the cantilever was first positioned above a tiny drop of epoxy (Epotek 377). The AFM cantilever was then slowly approached toward the epoxy. A tiny amount of it was then carefully transferred onto the AFM tip. A similar procedure was used to attach the drug particle to the AFM tip containing the epoxy. The particle-modified AFM tip was then kept at room temperature for 24 h to allow the complete curing of the epoxy. SEM images of the drug-modified cantilevers were obtained after the adhesion force measurements to verify the integrity and quality of the probe. The spring constant of the drug-modified cantilevers was determined using a module attached to the AFM and the MI Thermal K 1.02 software. Preparation and Characterization of the Drug Crystal Substrate. Salbutamol was first dissolved in ethanol to saturation. The solution was then transferred onto a cover glass previously treated with piranha solution (7:3 v/v H2SO4/H2O2). The system was kept inside a scaled Petri dish. The crystallization process of salbutamol was induced by the controlled evaporation of ethanol. Optical microscopy was used to observe the crystal morphology. The surface topography of the salbutamol crystal was examined by AFM under tapping mode, with a silicon cantilever (BS-Multi 75). Colloidal Probe Microscopy (CPM). The force of adhesion (Fad) between the salbutamol-modified cantilever and a smooth salbutamol crystal substrate was determined by CPM, at 298 K. A fluid cell was used to perform the experiments in liquid HPFP. The procedure adopted here is similar to that used to investigate the effect of other excipients on drug-drug interactions. FIG. 2a is the schematic diagram of a typical force curve obtained during the CPM measurements. The Fad is determined as the product of the spring constant (k) of the drug-modified AFM cantilever and the maximum cantilever deflection (x) during the retraction stage of the force measurement; […]; as schematically shown in FIG. 2a. Several contact points, randomly distributed on the crystal surfaces over a 9 μm×9 μm area, were selected for the measurements. At each contact point, 25 force-distance curves were measured. The tip was moved toward and away from the substrate in a range of 2000 nm and a sweep duration of 2 s. The histograms of the measured Fad were fit to a Gaussian distribution, from which an average Fad and deviation were obtained. The same drug probe was used throughout the measurements to guarantee a constant contact area. Great care was taken to guarantee the integrity of the drug probe. Since the solubility of salbutamol in HPFP is negligible, before each new adhesion force measurement, the drug probe and drug crystal substrate were thoroughly rinsed with HPFP, followed by an Fad test in pure HPFP. […] A second set of completely independent measurements (new probe and crystal substrate) were obtained to assess the reproducibility of the reported trend in Fad.

[2] = Solubility in propellant / solvent; format: physicochemical

CCO [Ethanol]
Fad probe 1 ([1]; no surfactant, cosolvent ethanol 7% (v/v) alone, probe 1): 6.31 ± 0.47 nN | Fad probe 2 ([1]; no surfactant, cosolvent ethanol 7% (v/v) alone): 5.01 ± 0.26 nN

CCCCCCCC/C=C\CCCCCCCC(=O)O [Oleic acid]
Fad probe 1 ([1]; surfactant 1.0 mM with cosolvent ethanol 7% (v/v), probe 1): 1.54 ± 0.35 nN | Fad probe 1 ([1]; surfactant 1.0 mM with cosolvent ethanol 7% (v/v), probe 1, listed as oleic acid): 1.54 nN | Fad probe 2 ([1]; surfactant 1.0 mM with cosolvent ethanol 7% (v/v)): 1.64 ± 0.21 nN

CC(C)(C)NCC(O)c1ccc(O)c(CO)c1 (stereo not shown) [salbutamol]
Solubility in HPFP ([2]; HPFP): negligible | Solubility in ethanol ([2]; ethanol): appreciable solubility
